pIC50: −log10 of the molar value. Several values for one entry are separate records, joined by “and”; a condition that tells them apart may be missing. Identical values can stand only once.

From patent US5922681A, “Endothelin antagonists” (Warner-Lambert Company, priority 1992, dated 1999) come the findings set out here.

Experiment [1] concerns the target T1, ETB (rat cerebellar membranes) (Rattus norvegicus, UniProt P21451).
T1 construct: thaw one aliquot of frozen rat cerebellar membranes; from tissue; host or cells: rat cerebellar membranes
T1 sequence (P21451 27-442): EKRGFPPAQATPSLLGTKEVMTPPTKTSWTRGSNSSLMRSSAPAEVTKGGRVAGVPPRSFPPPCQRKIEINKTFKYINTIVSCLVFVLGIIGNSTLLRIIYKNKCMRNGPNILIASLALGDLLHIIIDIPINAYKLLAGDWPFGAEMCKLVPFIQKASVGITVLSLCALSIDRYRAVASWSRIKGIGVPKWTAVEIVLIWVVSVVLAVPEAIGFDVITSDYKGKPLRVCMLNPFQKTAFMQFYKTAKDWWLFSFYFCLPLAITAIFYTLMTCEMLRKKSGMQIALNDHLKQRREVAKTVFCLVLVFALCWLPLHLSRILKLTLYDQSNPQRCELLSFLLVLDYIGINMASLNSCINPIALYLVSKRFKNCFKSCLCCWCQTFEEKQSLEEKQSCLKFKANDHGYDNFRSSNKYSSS
In words: Endothelin receptor binding assay-B (ERBA-B), [125I]-ET-1 binding in rat cerebellar membranes. To be noted: for Selectivity ETA / ETB from Table I: ERBA-A versus ERBA-B; for pIC50: rat cerebellar membranes, [125I]-ET-1 25 pM. As for the experimental part: (§1) The compounds of Formula I are valuable antagonists of endothelin. […] Compounds of Formula I were tested for their ability to inhibit [^125 I]-ET-1([^125 I]-Endothelin-1) binding in a receptor assay according to the following procedures Doherty, A. M., et al, J. Cardiovascul. Pharmacol. 17(Suppl 7):S59-61 (1991) and Doherty, A. M., et al, Bio. Org. Med. Chem. Lett. in press (1992):
ENDOTHELIN RECEPTOR BINDING ASSAY-B (ERBA-B) [^125 I]-ET-1 BINDING IN RAT CEREBELLAR MEMBRANES
The tissue is made up of 20 mM tris(hydroxy-methyl)aminomethane hydrochloride (Trizma) buffer, 2 mM ethylenediaminetetra acetate, 100 μM phenylmethylsulfonyl fluoride.
First, thaw one aliquot of frozen rat cerebellar membranes (2 mg protein in 0.5 mL). Next, add 0.5 mL membrane aliquot to 4.5 mL cold tissue buffer, polytron at 7,500 revolutions per minute for 10 seconds. Finally, dilute tissue suspension 1/100 (0.1 mL suspension+9.9 mL tissue buffer), polytron again, and place ice.
Medium 199 with Hank's salts plus 25 mM Hepes+1 mg/mL bovine serum albumin.
Amersham [^125 I]-ET-1 (aliquots of 2×10^6 cpm per […] aliquot of [^125 I]-ET-1 with 5.2 mL dilution buffer, place on ice until use (final concentration will be 20,000 cpm per tube, or 25 pM).
Add 50 μL each of cold [^125 ]-ET-1 and competing ligand to tubes on ice. Mix in 150 μL of tissue to each tube, vortex briefly, then tap to force all liquids to bottom (total assay volume=250 μL). Then place the tubes in a 37° C. water bath for 2 hours.
Add 2.5 mL cold wash buffer (50 mM Trizma buffer) to each tube, filter, and then wash tube with additional 2.5 mL wash buffer and add to filter. Finally, wash filters with an additional 2.5 mL of cold wash buffer.
Count filters for radioactivity in gamma counter.

Experiment [2] concerns the target T2, ETA (rabbit renal artery vascular smooth muscle cells) (Oryctolagus cuniculus, UniProt A5A8K3).
T2 construct: The cells used were rabbit renal artery vascular smooth muscle cells; endogenous in cells; host or cells: rabbit renal artery vascular smooth muscle cells
T2 sequence (A5A8K3 21-427): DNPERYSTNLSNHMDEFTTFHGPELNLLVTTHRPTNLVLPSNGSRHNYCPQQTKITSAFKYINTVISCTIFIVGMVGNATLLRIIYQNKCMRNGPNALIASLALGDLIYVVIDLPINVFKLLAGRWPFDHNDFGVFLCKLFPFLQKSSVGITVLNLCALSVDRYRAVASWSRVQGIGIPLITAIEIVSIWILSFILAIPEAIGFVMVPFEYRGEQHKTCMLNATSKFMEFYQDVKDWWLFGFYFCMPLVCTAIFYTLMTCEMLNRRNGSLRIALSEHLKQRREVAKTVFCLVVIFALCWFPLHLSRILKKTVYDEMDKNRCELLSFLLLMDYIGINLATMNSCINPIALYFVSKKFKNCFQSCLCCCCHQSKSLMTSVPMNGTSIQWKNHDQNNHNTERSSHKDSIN
The experiment is described as follows: Endothelin receptor binding assay-A (ERBA-A), intact cell binding of [125I]-ET-1. As to the method: as §1
ENDOTHELIN RECEPTOR BINDING ASSAY-A (ERBA-A) INTACT CELL BINDING OF [^125 I]-ET-1
The cells used were rabbit renal artery vascular smooth muscle cells grown in a 48-well dish (1 cm^2) (confluent cells).
The growth media was Dulbeccos Modified Eagles/Ham's F12 which contained 10% fetal bovine serum and antibiotics (penicillin/streptomycin/fungizone).
The assay buffer was a medium 199 containing Hanks salts and 25 mM Hepes buffer (Gibco 380-2350AJ), supplemented with penicillin/streptomycin/fungizone (0.5%) and bovine serum albumin (1 mg/mL).
Amersham radioiodinated endothelin-1 [^125 I]-ET-1 was used at final concentration of 20,000 cpm/0.25 mL (25 pM).
Second, remove the assay buffers, place the dish on ice, and add 150 μL of cold assay buffer described above to each well. Third, add 50 μL each of cold [^125 I]-ET-1 and competing ligand to the solution (at the same time if possible). Next, place dish in a 37° C. water bath for about 2 hours and gently agitate the dish every 15 minutes. Discard the radioactive incubation mixture in the sink and wash wells three times with […] of cold phosphate buffered saline. Last, add […] of 0.25 molar sodium hydroxide, agitate for 1 hour on a rotator, and then transfer the sodium hydroxide extract to gamma counting tubes and count the radioactivity.

Experiment [3] concerns the target endothelin receptor (Rat Heart). The experiment is described as follows: [125I]-ET-1 receptor binding, Rat Heart. As to the method: (§2) The compounds of Formula I are valuable antagonists of endothelin. […] Compounds of Formula I were tested for their ability to inhibit [^125 I]-ET-1([^125 I]-Endothelin-1) binding in a receptor assay according to the following procedures Doherty, A. M., et al, J. Cardiovascul. Pharmacol. 17(Suppl 7):S59-61 (1991) and Doherty, A. M., et al, Bio. Org.

In experiment [4] the target is endothelin receptor (Human Placenta). The experiment is described as follows: [125I]-ET-1 receptor binding, Human Placenta. As for the experimental part: as §2

Consider `CC(Cc1c[nH]c2ccccc12)(NC(=O)OC1C2CC3CC(C2)CC1C3)C(=O)N(CCc1ccccc1)CC(=O)O` (racemic) [Compound 13, (±)-N-[3-(1H-indol-3-yl)-2-methyl-1-oxo-2-[[(tricyclo[3.3.1.1^3,7]dec-2-yloxy)carbonyl]amino]-propyl]-N-(2-phenylethyl)glycine], for which, in experiment [1], the inhibition at 10 µM was 72.3%, the “Selectivity ETA / ETB from Table I” value is listed as “selective for ETB” and the pIC50 is 5.40. Moreover, the inhibition at 10 µM in experiment [2] is -0.2%.

Turning to `CC(Cc1c[nH]c2ccccc12)(NC(=O)OC1C2CC3CC(C2)CC1C3)C(=O)NC(CSCC(=O)O)Cc1ccccc1` (stereo not drawn) [Compound 2, [R-(R*,S*)]-[[2-[[3-(1H-indol-3-yl)-2-methyl-1-oxo-2-[[(tricyclo[3.3.1.1^3,7]dec-2-yloxy)carbonyl]-amino]propyl]amino]-3-phenylpropyl]thio]acetic acid], the 50% inhibitory concentration (IC50) in experiment [3] worked out at 9.06 µM; in experiment [4], 9.88 µM.

For the molecule `CC(Cc1c[nH]c2ccccc12)(NC(=O)OC1C2CC3CC(C2)CC1C3)C(=O)NC(CC(=O)O)Cc1ccccc1` (stereo not drawn) [Compound 3, [R-(R*,S*)]-β-[[3-(1H-indol-3-yl)-2-methyl-1-oxo-2-[[(tricyclo[3.3.1.1^3,7]dec-2-yloxy)carbonyl]-amino]propyl]amino]benzenebutanoic acid], the half-inhibitory concentration (IC50) in experiment [3] was 7.91 µM; in experiment [4], 0.96 µM.

As for `C[C@](Cc1c[nH]c2ccccc12)(NC(=O)OC1C2CC3CC(C2)CC1C3)C(=O)NC(CC(=O)O)Cc1ccccc1` (stereo partly drawn) [Compound 5, N-[α-methyl-N-[(tricyclo[3.3.1.1^3,7]dec-2-yloxy)carbonyl]-D-tryptophyl]-D-3-(phenylmethyl)-β-alanine], the 50% inhibitory concentration (IC50) in experiment [3] is 34.5 µM; in experiment [4], 3.84 µM.

In the case of `CC(Cc1c[nH]c2ccccc12)(NC(=O)OC1C2CC3CC(C2)CC1C3)C(=O)NC(C=CC(=O)O)Cc1ccccc1` (stereo not drawn) [Compound 6, [R-[R*,S*-(E)]]-4-[[3-(1H-indol-3-yl)-2-methyl-1-oxo-2-[[(tricyclo[3.3.1.1^3,7]dec-2-yloxy)carbonyl]-amino]propyl]amino]-5-phenyl-2-pentenoic acid], the negative-log IC50 (pIC50) in experiment [1] was 6.06.

Regarding `CC(Cc1c[nH]c2ccccc12)(NC(=O)OC1C2CC3CC(C2)CC1C3)C(=O)NC(CCC(=O)O)Cc1ccccc1` (stereo not drawn) [Compound 7, [R-(R*,S*)]-γ-[[3-(1H-indol-3-yl)-2-methyl-1-oxo-2-[[(tricyclo[3.3.1.1^3,7]dec-2-yloxy)carbonyl]-amino]propyl]amino]benzenepentanoic acid], the pIC50 in experiment [1] is 6.06.

With `C[C@](Cc1c[nH]c2ccccc12)(NC(=O)OC1C2CC3CC(C2)CC1C3)C(=O)N(CCC(=O)O)CCc1ccccc1` (stereo partly drawn) [Compound 8, (R)-3-[[3-(1H-indol-3-yl) -2-methyl-1-oxo-2-[[(tricyclo[3.3.1.1^3,7]dec-2-yloxy)carbonyl]amino]-propyl](2-phenylethyl)amino]propanoic acid], the pIC50 in experiment [1] is 6.04 and 5.74. For the same molecule, the inhibition at 10 µM in experiment [2] was 25%.

Consider `C[C@](Cc1c[nH]c2ccccc12)(NC(=O)OC1C2CC3CC(C2)CC1C3)C(=O)NC(CC(=O)O)Cc1ccc(N)cc1` (stereo partly drawn) [Compound 9, L-3-[(4-aminophenyl)methyl]-N-[α-methyl-N-[(tricyclo[3.3.1.1^3,7]dec-2-yloxy)carbonyl]-D-tryptophyl]-β-alanine], for which the “ERBA-B % inhibition at 10 μM” value in experiment [1] is given as 9.4%. Further, the “ERBA-A % inhibition at 10 μM” value in experiment [2] stood at 33.5%.

Regarding `Cc1[nH]c2ccccc2c1C[C@@H](NC(=O)OC1C2CC3CC(C2)CC1C3)C(=O)N[C@@H](Cc1ccccc1)C(=O)NCC(=O)O` (stereo partly drawn) [Compound 10, N-[2-methyl-N-[(tricyclo[3.3.1.1^3,7]dec-2-yloxy)carbonyl]-D-tryptophyl]-L-phenylalanyl-glycine], the inhibition at 10 µM was found to be 39.7% in experiment [1] and 45% in experiment [2].

For the molecule `CC(Cc1c[nH]c2ccccc12)(NC(=O)OC1C2CC3CC(C2)CC1C3)C(=O)NC(CC(=O)O)Cc1ccc([N+](=O)[O-])cc1` (stereo not drawn) [Compound 11, [R-(R*,S*)]-β-[[3-(1H-indol-3-yl)-2-methyl-1-oxo-2-[[(tricyclo[3.3.1.1^3,7]dec-2-yloxy)carbonyl]-amino]propyl]amino]-4-nitrobenzenebutanoicacid], the “ERBA-B % inhibition at 10 μM” value in experiment [1] is recorded as 51.4%. Moreover, the “ERBA-A % inhibition at 10 μM” value in experiment [2] is on record as 47.7%.

`C[C@](Cc1c[nH]c2ccccc12)(NC(=O)OC1C2CC3CC(C2)CC1C3)C(=O)N(CCc1ccccc1)CC(=O)O` (stereo partly drawn) [Compound 12, N-[α-methyl-N-[(tricyclo[3.3.1.1^3,7]dec-2-yloxy)carbonyl]-D-tryptophyl]-N-(2-phenylethyl)-glycine]: in experiment [1], the inhibition at 10 µM turned out to be 86%, the “Selectivity ETA / ETB from Table I” value is “selective for ETB” and the pIC50 is 5.74. For the same molecule, the inhibition at 10 µM in experiment [2] was determined as 4.1%.

As to `CC(Cc1c[nH]c2ccccc12)(NC(=O)OC1C2CC3CC(C2)CC1C3)C(=O)NC(C=CC=CC(=O)O)Cc1ccccc1` (stereo not drawn) [Compound 14, [R-[R*,S*-(E,E)]]-6-[[3-(1H-indol-3-yl)-2-methyl-1-oxo-2-[[(tricyclo[3.3.1.1^3,7]dec-2-yloxy)-carbonyl]amino]propyl]amino]-7-phenyl-2,4-heptadienoic acid], in experiment [1], the “ERBA-B % inhibition at 10 μM” value was 39.8%. In addition, the “ERBA-A % inhibition at 10 μM” value in experiment [2] is recorded as 54.3%.

For the molecule `CC(Cc1c[nH]c2ccccc12)(NC(=O)OC1C2CC3CC(C2)CC1C3)C(=O)NC(CCCCC(=O)O)Cc1ccccc1` (stereo not drawn) [Compound 15, [R-(R*,S*)]-ε-[[3-(1H-indol-3-yl)-2-methyl-1-oxo-2-[[(tricyclo[3.3.1.1^3,7]dec-2-yloxy)carbonyl]-amino]propyl]amino]benzeneheptanoic acid], the “ERBA-B % inhibition at 10 μM” value in experiment [1] turned out to be 36.5%. The “ERBA-A % inhibition at 10 μM” value in experiment [2] amounted to 51.6%.

In the case of `C[C@](Cc1c[nH]c2ccccc12)(NC(=O)NC1CCCCC1)C(=O)O` [Compound 16, N-[(cyclohexylamino)carbonyl]-α-methyl-D-tryptophan], the pIC50 in experiment [1] is less than 5.00; in experiment [2] (rabbit renal artery vascular smooth muscle cells, [125I]-ET-1 25 pM), 5.82.

The term inhibition denotes the relative decrease from the control value, in per cent. One may read the pIC50 as −log10 of the IC50, conventionally taken in molar units. A high value points to a low IC50. Usually IC50 stands for the midpoint of a concentration-inhibition curve. Higher therefore signals a need for much substance.
